The test system of experiment [1] is recombinant glutamine synthetase from Lotus japonicas. The experiment can be described thus: Biosynthetic assay for plant glutamine synthetase. Format: biochemical. To be noted: for effect on plant glutamate synthetase activity (in words): text summary of Table 5, 40 μg/ml. As to the method: The biosynthetic assay for plant glutamine synthetase was carried out as follows. This assay uses following solutions: reaction buffer (pH 6.8, 75 mM HEPES, 300 mM L-glutamic acid, 11 mM NH4Cl, 40 mM MgCl2), recombinant […] GS from Lotus japonicas (Betti et al., 2006) working solution (pH 6.8, 50 mM ATP), reaction quenching and color formation solution (12% w/v L-ascorbic acid in 1 N HCl solution and 2% w/v sodium molybdate in DD H2O), color fixing solution (1% sodium citrate tribasic dehydrate in 1% acetic acid in DD H2O), and blank solution (420 mM EDTA solution).
Commercial herbicide (i.e., glufosinate or DL-Phosphinotricin) was used a positive control. EDTA was used as a negative control. In this experiment, we used the active ingredient(s) in the extracts from Burkholderia Spp. (internal labeled as A396 strain or MBI-206 and/or MBI-010).

The next experiment has as its system Burkholderia A396. In kind it is cell-based, Burkholderia sp. A396. To be noted: for Susceptible: Muller-Hinton medium, 72-hour incubation at 25° C.; for Susceptibility of Burkholderia A396 (in words): Table 2. On the procedure:
Antibiotic susceptibility of Burkholderia A396 is tested using antibiotic disks on Muller-Hinton medium as described in PML Microbiological's technical data sheet #535.

For experiment [2], the system named is B. cepacia complex strains isolated from cystic fibrosis patients. To be noted: of 2,621 B. cepacia complex strains, Zhou et al., 2007; cited from earlier work.
Another experiment deals with B. cepacia isolates. To be noted: 366 B. cepacia isolates, Pitt et al., 1996; cited from earlier work.
[3] abbreviates: Table 5, pure compounds of MBI-206 and fractions, 40 μg/ml.

Read-outs that look alike come from different tables or passages of the source.

Turning to templazole B [Templazole B (ii)], the “GS inhibition (%)” value in experiment [1] (setting [3]) was 46%. The “effect on plant glutamate synthetase activity (in words)” value (“effect” for short) in experiment [1] was “inhibitory effect”.

Turning to `CP(=O)(O)CCC(N)C(=O)O` (racemic) [DL-Phosphinotricin], in experiment [1] (Study #2 (MBI-206), 100 μg/ml), the “GS inhibition (%) Plate 1” value is reported as 68.8%. Besides, in experiment [1] (Study #2 (MBI-206), 100 μg/ml), the “GS inhibition (%) Plate 2” value was 71.5%. The “GS inhibition (%)” value in experiment [1] (Table 5, pure compounds of MBI-206 and fractions, 100 μg/ml) was 70.8%; in experiment [1] (study #1 (MBI-010), 200 μg/ml final concentration), 70%; in experiment [1] (study #1 (MBI-010), 200 μg/ml final concentration, listed as DL-phosphinotricin), “about 70%”.

As for `COC(=O)c1nc(CC(C)C)oc1-c1c[nH]c2ccccc12` [Templazole A (i), templazole A], the “GS inhibition (%)” value in experiment [1] (setting [3]) was found to be 30%. In addition, the “effect” value in experiment [1] was “inhibitory effect”.

As for Gentamicin, the Susceptible result with Burkholderia A396 (disk 10 ug) is listed as “−”.

Take `CN(C)[C@@H]1C(O)=C(C(N)=O)C(=O)[C@@]2(O)C(O)=C3C(=O)c4c(O)cccc4[C@@](C)(O)[C@H]3[C@H](O)[C@@H]12` [Oxytetracycline]: the Susceptible result in the experiment with Burkholderia A396 (disk 30 ug) was “−”.

As to `O=C(N[C@H](CO)[C@H](O)c1ccc([N+](=O)[O-])cc1)C(Cl)Cl` [Chloramphenicol], the “Susceptibility of Burkholderia A396 (in words)” value (shortened to “Susceptibility”) in the experiment with Burkholderia A396 is recorded as “susceptible”. The Susceptible entry in the experiment with Burkholderia A396 (disk 30 ug) is “++”. In experiment [2], the strains resistant is listed as 85% and the strains susceptible was 15%.

With `CN(C)[C@@H]1C(O)=C(C(N)=O)C(=O)[C@@]2(O)C(O)=C3C(=O)c4c(O)cccc4[C@@](C)(O)[C@H]3C[C@@H]12` [Tetracycline], the Susceptible result in the experiment on Burkholderia A396 (disk 30 ug) was “−”.

Take Penicillin: the Susceptible result in the experiment with Burkholderia A396 (disk 10 ug) is reported as “−”.

As for `C[C@@H](O)[C@H]1C(=O)N2C(C(=O)O)=C(SCCN=CN)C[C@H]12` [Imipenem], in the experiment on Burkholderia A396 (disk 10 ug), the Susceptible entry is “+++”.

Turning to `CC[C@H]1OC(=O)[C@H](C)[C@@H](O[C@H]2C[C@@](C)(OC)[C@@H](O)[C@H](C)O2)[C@H](C)[C@@H](O[C@@H]2O[C@H](C)C[C@H](N(C)C)[C@H]2O)[C@](C)(O)C[C@@H](C)C(=O)[C@H](C)[C@@H](O)[C@]1(C)O` [Erythromycin], the Susceptible result in the experiment with Burkholderia A396 (disk 15 ug) is recorded as “−”.

`[H]/N=C(/N)N[C@H]1[C@H](O)[C@@H](O)[C@H](O[C@@H]2O[C@@H](C)[C@](O)(C=O)[C@H]2O[C@@H]2O[C@@H](CO)[C@H](O)[C@@H](O)[C@@H]2NC)[C@@H](N/C(N)=N\[H])[C@@H]1O` [Streptomycin]: the Susceptible entry with Burkholderia A396 (disk 10 ug) is given as “−”.

For the compound `O=C(O)c1cn(C2CC2)c2cc(N3CCNCC3)c(F)cc2c1=O` [Ciprofloxacin], the “Susceptibility” value in the experiment with Burkholderia A396 is “susceptible”. Further, in the experiment on Burkholderia A396 (disk 5 ug), the Susceptible entry is given as “++”. Further, in experiment [2], the strains susceptible is 5%. Besides, the “antibiotic resistance of isolates (in words)” value in the experiment on B. cepacia isolates was “most of them are resistant”.

Take `NC[C@H]1O[C@H](O[C@H]2[C@H](O)[C@@H](O[C@H]3O[C@H](CO)[C@@H](O)[C@H](N)[C@H]3O)[C@H](N)C[C@@H]2N)[C@H](O)[C@@H](O)[C@@H]1O` [Kanamycin]: in the experiment on Burkholderia A396 (disk 30 ug), the Susceptible result is listed as “+++”.

For `CO/N=C(\C(=O)N[C@@H]1C(=O)N2C(C(=O)O)=C(COC(N)=O)CS[C@H]12)c1ccco1` [Cefuroxime], the Susceptible entry with Burkholderia A396 (disk 30 ug) is given as “−”. Also, the “antibiotic resistance of isolates (in words)” value in the experiment on B. cepacia isolates is given as “most of them are resistant”.

Turning to `CC1(C)S[C@@H]2[C@H](NC(=O)[C@H](N)c3ccccc3)C(=O)N2[C@H]1C(=O)O` [Ampicillin], in the experiment with Burkholderia A396 (disk 10 ug), the Susceptible entry is “−”.

On to `C/C=C1\NC(=O)[C@H]2CSSCC/C=C/[C@H](CC(=O)N[C@H](C(C)C)C(=O)N2)OC(=O)[C@H](C(C)C)NC1=O` [FR901228 (iii), FR901228], for which, in experiment [1] (setting [3]), the “GS inhibition (%)” value is listed as 57%. Also, in experiment [1], the “effect” value is recorded as “inhibitory effect”.

In the case of `CCN1CCN(C(=O)N[C@@H](C(=O)N[C@@H]2C(=O)N3[C@@H]2SC(C)(C)[C@@H]3C(=O)O)c2ccccc2)C(=O)C1=O` [Piperacillin], the “Susceptibility” value in the experiment with Burkholderia A396 is reported as “susceptible”. The Susceptible entry in the experiment on Burkholderia A396 (disk 100 ug) is “+++”.

The values above are taken from patent publication US9119401B2, “Plant glutamine synthetase inhibitors and methods for their identification” (priority 2012, dated 2015).
